Reference: patent US7998985B2, “1,5-diphenyl-3-pyridinylamino-1,5-dihydropyrrolidin-2-one as CB1 receptor modulator” (Eli Lilly and Company, priority 2006, dated 2011)

Experiments:
rat CB1 receptor = biological target: T1, rat CB1 receptor (Rattus norvegicus, UniProt P20272); assay: Antibody-capture SPA GTP-γ-35S binding, antagonist/inverse agonist mode, rat CB1 (CHO membranes); assay type: biochemical; details: Rat CB1 (CHO cells) membranes; vs saturating methanandamide; mean ± SEM; read-out: Inverse Agonist Potency (Kb)
T1 construct: purchased Applied Cell Sciences, Gaithersburg, Md; PerkinElmer Life Sciences, Boston, Mass; host or cells: CHO cells (recombinant expression), membranes
Experimental: (§1) Antibody-Capture SPA GTP-γ-^35S Binding
(§2) In cell membranes expressing human or rat CB1 or CB2 receptor, test (3R,5R)-3-[1-methyl-1-(6-trifluoromethyl-pyridin-3-yl)-ethylamino]-1-(4-trifluoromethyl-phenyl)-5-(3-trifluoromethoxy-phenyl)-pyrrolidin-2-one 4-methylbenzenesulfonate (referred to as “Example 2”) for its antagonist/inverse agonist functional GTP-binding. In a 96 well format using a modified antibody capture technique (DeLapp et al., 1999), measure GTP-γ^35S binding. Briefly incubate for 30 minutes at room temperature the GTP-binding assay buffer (20 mM Hepes, 100 mM NaCl, 5 mM MgCl2, pH 7.4), the CHO or Sf9 cell membranes expressing CB1 or CB2, (Applied Cell Sciences, Gaithersburg, Md.; PerkinElmer Life Sciences, Boston, Mass.; prepare membranes as previously described (DeLapp et al., 1999)), Example 2 and the 500 pM GTP-γ-^35S (PerkinElmer Life Sciences, Boston, Mass.). Perform antagonist dose responses in the presence of a saturating dose of a full agonist (methanandamide). […]
(§3) To analyze data, subtract background from all wells. […] Determine Kb values using a modification of the Cheng-Prusoff relationship: Kb=IC50/(1+[agonist]/EC50) where IC50 is determined from a four parameter fit of displacement curves, [agonist]=EC50 of full agonist, and EC50 is determined from a four parameter fit of a full agonist concentration response curve (Cheng and Prusoff 1973). […]

[1] = system: diet-induced obese (DIO) male Long-Evans rats; assay: Feeding model in diet-induced obese (DIO) rats, 14 days; assay type: in vivo, rat
From the text: Methods: Administer Example 2 to diet-induced obese (DIO) male Long-Evans rats. Establish DIO by ad lib feeding from weanling of a diet consisting of 40% fat, 39% carbohydrate and 21% protein caloric content for at least 12 weeks. Define compound potency by T17 (the dose required to produce a difference from the vehicle group of 17 grams). This represents a minimally biologically relevant reduction of 3-4% of body weight compared to vehicle treatment after 2 weeks.

hCB1 [2] = biological target: T2, hCB1 (Homo sapiens, UniProt P21554); assay: Antibody-capture SPA GTP-γ-35S binding, antagonist/inverse agonist mode, human CB1 (CHO membranes); assay type: biochemical; details: Human CB1 (CHO cells) membranes; vs saturating methanandamide; mean ± SEM; read-out: Inverse Agonist Potency (Kb)
Experimental: as §1, §2, §3

hCB1 [3] = biological target: T2, hCB1; assay: GTP-γ-35S binding, agonist mode, human CB1 (Sf9 membranes); assay type: biochemical; set-up: purchased Applied Cell Sciences, Gaithersburg, Md; PerkinElmer Life Sciences, Boston, Mass; host or cells: Sf9 insect cells (recombinant expression), membranes

T2 sequence (P21554 whole entry): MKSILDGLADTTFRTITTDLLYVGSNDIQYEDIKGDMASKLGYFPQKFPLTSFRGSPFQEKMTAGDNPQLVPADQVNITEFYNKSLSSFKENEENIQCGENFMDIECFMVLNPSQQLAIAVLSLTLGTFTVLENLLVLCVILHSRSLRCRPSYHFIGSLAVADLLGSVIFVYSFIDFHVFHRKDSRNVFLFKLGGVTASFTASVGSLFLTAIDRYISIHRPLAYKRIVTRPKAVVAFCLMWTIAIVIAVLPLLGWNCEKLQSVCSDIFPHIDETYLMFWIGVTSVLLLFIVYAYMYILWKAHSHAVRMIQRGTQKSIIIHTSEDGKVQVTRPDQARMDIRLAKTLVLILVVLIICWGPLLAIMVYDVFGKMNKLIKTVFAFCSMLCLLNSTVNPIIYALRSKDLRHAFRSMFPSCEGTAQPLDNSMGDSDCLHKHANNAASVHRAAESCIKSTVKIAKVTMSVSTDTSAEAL
T1 sequence (P20272 whole entry): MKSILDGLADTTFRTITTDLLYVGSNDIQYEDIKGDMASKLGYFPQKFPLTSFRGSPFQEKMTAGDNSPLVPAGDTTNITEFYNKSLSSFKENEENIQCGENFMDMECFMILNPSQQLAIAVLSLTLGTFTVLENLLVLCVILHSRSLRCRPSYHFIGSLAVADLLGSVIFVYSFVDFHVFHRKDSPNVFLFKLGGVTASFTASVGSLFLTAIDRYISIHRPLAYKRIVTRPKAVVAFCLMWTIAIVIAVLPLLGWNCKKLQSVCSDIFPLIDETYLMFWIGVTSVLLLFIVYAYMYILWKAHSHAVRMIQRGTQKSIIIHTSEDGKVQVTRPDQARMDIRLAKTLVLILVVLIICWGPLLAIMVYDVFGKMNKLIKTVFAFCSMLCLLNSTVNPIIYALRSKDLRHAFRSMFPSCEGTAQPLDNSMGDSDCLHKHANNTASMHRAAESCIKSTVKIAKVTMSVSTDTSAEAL

For `CC(C)(N[C@@H]1C[C@H](c2cccc(OC(F)(F)F)c2)N(c2ccc(C(F)(F)F)cc2)C1=O)c1ccc(C(F)(F)F)nc1.Cc1ccc(S(=O)(=O)O)cc1` [Example 2, (3R,5R)-3-[1-methyl-1-(6-trifluoromethyl-pyridin-3-yl)-ethylamino]-1-(4-trifluoromethyl-phenyl)-5-(3-trifluoromethoxy-phenyl)-pyrrolidin-2-one, 4-methylbenzenesulfonate (1:1)], the Kb (rat CB1 receptor) was 1.27 ± 0.2 nM, the “fat free mass (QNMR)” value [1] was “minimal changes in fat free mass at one of the highest doses” and the cumulative body weight ([1]; 14-day oral treatment) was “reduction of cumulative body weight”. For the same compound, the “T17 (dose producing a 17 gram body weight difference from vehicle)” value ([1]; 14-day oral treatment, estimated) was 0.13 mg/kg, the “efficacy dose (T17) for change in body mass from control” value ([1]; daily oral, 14 days, as restated) was 0.13 mg/kg/day and the “fat mass (QNMR)” value ([1]; doses 0.1-10 mg/kg) was “significant reductions in fat mass”. The cumulative food intake ([1]; once daily orally, 14 days) was “Decrease cumulative food intake”, the Kb (hCB1 [2]) was 0.71 ± 0.26 nM and the “Agonist Efficacy %” value (hCB1 [3]; normalised to full agonist methanandamide) was −47.9 ± 4.7%. It also gave an EC50 (hCB1 [3]; read-out: Agonist Potency EC50) of 0.58 ± 0.05 nM.
